What was measured:
FLT3 = target: T1, FLT3 (Homo sapiens, UniProt P36888); test: TR-FRET kinase activity assay, FLT3; assay type: biochemical; details: ATP at Km, 60 minutes
T1 sequence (P36888 27-993): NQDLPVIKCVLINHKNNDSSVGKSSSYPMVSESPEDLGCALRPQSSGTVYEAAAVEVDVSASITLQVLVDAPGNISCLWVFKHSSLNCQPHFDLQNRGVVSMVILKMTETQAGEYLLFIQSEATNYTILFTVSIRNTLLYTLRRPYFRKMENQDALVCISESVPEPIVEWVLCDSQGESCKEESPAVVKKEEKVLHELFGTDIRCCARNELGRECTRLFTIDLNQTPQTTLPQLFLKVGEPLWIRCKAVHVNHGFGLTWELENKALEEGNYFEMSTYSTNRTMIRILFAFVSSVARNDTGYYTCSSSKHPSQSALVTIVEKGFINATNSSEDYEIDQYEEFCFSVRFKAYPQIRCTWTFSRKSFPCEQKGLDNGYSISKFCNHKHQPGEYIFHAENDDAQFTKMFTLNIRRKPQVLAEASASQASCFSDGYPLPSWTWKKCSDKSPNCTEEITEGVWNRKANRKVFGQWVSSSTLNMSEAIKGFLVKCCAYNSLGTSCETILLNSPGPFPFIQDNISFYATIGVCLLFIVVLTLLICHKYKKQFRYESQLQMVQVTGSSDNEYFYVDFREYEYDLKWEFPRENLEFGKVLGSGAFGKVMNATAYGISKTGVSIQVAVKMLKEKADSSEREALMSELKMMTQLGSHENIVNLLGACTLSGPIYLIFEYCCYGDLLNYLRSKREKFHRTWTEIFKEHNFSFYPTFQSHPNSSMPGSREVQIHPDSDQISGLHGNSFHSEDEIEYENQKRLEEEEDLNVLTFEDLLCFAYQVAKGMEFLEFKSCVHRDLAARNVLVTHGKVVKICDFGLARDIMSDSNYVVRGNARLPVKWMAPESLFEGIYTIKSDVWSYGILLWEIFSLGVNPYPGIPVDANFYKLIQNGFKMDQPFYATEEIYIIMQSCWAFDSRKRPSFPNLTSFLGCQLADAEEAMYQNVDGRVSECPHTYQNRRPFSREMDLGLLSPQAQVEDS
Procedure, shortened: (§1)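 Enzyme, fluorescent peptide substrate and compound were mixed, and the reaction was started with ATP at each kinase's Km, in 50 mM HEPES pH 7.5, 10 mM MgCl2, 1 mM EGTA, 0.01% Brij 35, 1 mM DTT at RT. After 60 minutes EDTA quench, Eu-labelled phospho-specific antibody was added for 30 minutes, and IC50 was derived from TR-FRET signal loss.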

MERTK = target: T2, MERTK (Homo sapiens, UniProt Q12866); test: TR-FRET kinase activity assay, MERTK; assay type: biochemical; details: for IC50: TR-FRET activity assay, ATP at Km, 60 minutes, read-out: Mer IC50
T2 sequence (Q12866 21-999): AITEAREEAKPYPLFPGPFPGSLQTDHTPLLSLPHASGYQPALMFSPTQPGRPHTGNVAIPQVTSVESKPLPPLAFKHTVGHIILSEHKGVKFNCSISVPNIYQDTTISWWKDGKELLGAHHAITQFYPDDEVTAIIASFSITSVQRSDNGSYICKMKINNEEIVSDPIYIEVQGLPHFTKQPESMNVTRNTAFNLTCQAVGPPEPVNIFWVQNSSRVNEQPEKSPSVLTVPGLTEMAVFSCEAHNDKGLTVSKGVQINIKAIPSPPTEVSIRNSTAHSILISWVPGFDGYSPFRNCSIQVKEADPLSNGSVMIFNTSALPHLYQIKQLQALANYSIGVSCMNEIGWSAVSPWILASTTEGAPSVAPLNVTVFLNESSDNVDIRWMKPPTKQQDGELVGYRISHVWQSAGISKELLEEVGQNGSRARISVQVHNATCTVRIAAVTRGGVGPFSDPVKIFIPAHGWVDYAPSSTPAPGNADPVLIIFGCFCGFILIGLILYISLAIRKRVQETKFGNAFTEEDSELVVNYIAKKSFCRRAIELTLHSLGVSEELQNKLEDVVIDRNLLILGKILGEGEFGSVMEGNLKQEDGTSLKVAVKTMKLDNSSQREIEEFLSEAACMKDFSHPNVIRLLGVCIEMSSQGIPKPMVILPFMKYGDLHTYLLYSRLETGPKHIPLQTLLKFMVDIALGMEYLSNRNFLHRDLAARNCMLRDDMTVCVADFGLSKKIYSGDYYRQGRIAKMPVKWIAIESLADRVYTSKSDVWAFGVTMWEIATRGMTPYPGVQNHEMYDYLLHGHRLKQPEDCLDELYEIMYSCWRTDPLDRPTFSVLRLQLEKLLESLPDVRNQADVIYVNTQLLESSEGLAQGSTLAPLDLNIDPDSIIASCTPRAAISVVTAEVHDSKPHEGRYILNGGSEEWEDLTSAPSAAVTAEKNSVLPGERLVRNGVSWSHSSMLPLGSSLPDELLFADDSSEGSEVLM
Procedure, shortened: as §1

[1] = ratio calculated as FLT3 IC50/Mer IC50
[2] = ratio of Mer to FLT3: FLT3 IC50/Mer IC50

| Compound | IC50 (FLT3) | IC50 (MERTK) | FLT3/Mer ratio (FLT3 IC50/Mer IC50) (MERTK; [1]) | FLT3/Mer ratio (FLT3 IC50/Mer IC50) (MERTK; [2]) |
| --- | --- | --- | --- | --- |
| COC[C@H](C)Nc1ncc2c(-c3cnn(C(C)(C)C(=O)N4CCC(C)(O)C4)c3)cc([C@H]3CC[C@H](O)CC3)n2n1 (stereo partly drawn) [Compound 620] | 1000 to 10000 nM | ≤ 100 nM | +++ (“+++” represents a ratio of >100) | – |
| COC[C@H](C)Nc1ncc2c(-c3cnn(CC(C)C)c3)cc([C@H]3CC[C@H](O)CC3)n2n1 [Compound 167] | 100 to 1000 nM | ≤ 100 nM | – | +++ (“+++” represents a ratio of >100) |
| COC[C@H](C)Nc1ncc2c(-c3ccnc(C(C)(C)O)c3)cc([C@H]3CC[C@H](O)CC3)n2n1 [Compound 619] | 100 to 1000 nM | ≤ 100 nM | +++ (“+++” represents a ratio of >100) | – |
| COC[C@H](C)Nc1ncc2c(-c3ccnc(S(C)(=O)=O)c3)cc(C3CCC(O)CC3)n2n1 (stereo partly drawn) [Compound 627] | 1000 to 10000 nM | ≤ 100 nM | +++ (“+++” represents a ratio of >100) | – |
| COC[C@H](C)Nc1ncc2c(-c3ccc(C4(C(=O)N5CCOCC5)CC4)cc3)cc([C@H]3CC[C@H](O)CC3)n2n1 [Compound 171] | ≤ 100 nM | ≤ 100 nM | – | ++ (“++” represents a ratio of between 10 and 100) |
| COC[C@H](C)Nc1ncc2c(-c3cnn(C(C)(C)c4nnc(C(F)(F)F)o4)c3)cc([C@H]3CC[C@H](O)CC3)n2n1 [Compound 603] | 1000 to 10000 nM | ≤ 100 nM | +++ (“+++” represents a ratio of >100) | – |
| COCC(C)Nc1ncc2c(-c3cccc(C(C)N4CCCC4)c3)cc(C3CCC(O)CC3)n2n1 (stereo not drawn) [Compound 158] | 100 to 1000 nM | ≤ 100 nM | – | +++ (“+++” represents a ratio of >100) |
| COC[C@H](C)Nc1ncc2c(-c3cnn(CC(=O)NS(C)(=O)=O)c3)cc([C@H]3CC[C@H](O)CC3)n2n1 [Compound 174] | 1000 to 10000 nM | ≤ 100 nM | – | +++ (“+++” represents a ratio of >100) |
| [2H]C([2H])([2H])OCC(C)Nc1ncc2c(-c3ccnc(N4CCOCC4)c3)cc(C3CCC(O)CC3)n2n1 (stereo not drawn) [Compound 629] | 100 to 1000 nM | ≤ 100 nM | +++ (“+++” represents a ratio of >100) | – |
| C[C@@H](CC(F)(F)F)Nc1ncc2c(-c3cnn(C(C)(C)C(=O)N4CC5(COC5)C4)c3)cc([C@H]3CC[C@H](O)CC3)n2n1 [Compound 608] | ≤ 100 nM | ≤ 100 nM | ++ (“++” represents a ratio of between 10 and 100) | – |
| COCC(C)Nc1ncc2c(-c3ccc(C(C)N4CCOCC4)cc3)cc(C3CCC(O)CC3)n2n1 (mixture of isomers) [Compound 180] | 100 to 1000 nM | ≤ 100 nM | – | ++ (“++” represents a ratio of between 10 and 100) |
| COC[C@H](C)Nc1ncc2c(-c3cnn(C(C)(C)c4nnc([C@H]5CCCO5)o4)c3)cc([C@H]3CC[C@H](O)CC3)n2n1 [Compound 602] | 1000 to 10000 nM | ≤ 100 nM | +++ (“+++” represents a ratio of >100) | – |
| COC[C@H](C)Nc1ncc2c(-c3cnn(C(C)(C)c4nnc([C@@H]5CCCO5)o4)c3)cc([C@H]3CC[C@H](O)CC3)n2n1 [Compound 601] | 1000 to 10000 nM | ≤ 100 nM | +++ (“+++” represents a ratio of >100) | – |
| COC[C@H](C)Nc1ncc2c(-c3cnn(CC(=O)N4CCOCC4)c3)cc([C@H]3CC[C@H](O)CC3)n2n1 [Compound 162] | 100 to 1000 nM | ≤ 100 nM | – | +++ (“+++” represents a ratio of >100) |
| COC[C@H](C)Nc1ncc2c(-c3ccnc(N4CC(C)(O)C4)c3)cc(C3CCC(O)CC3)n2n1 (stereo partly drawn) [Compound 632] | 100 to 1000 nM | ≤ 100 nM | +++ (“+++” represents a ratio of >100) | – |
| CC[C@]1(O)CC[C@@H](c2cc(-c3cnn(C4COC4)c3)c3cnc(N[C@@H](C)COC)nn32)CC1 [Compound 616] | 100 to 1000 nM | ≤ 100 nM | +++ (“+++” represents a ratio of >100) | – |
| COC[C@H](C)Nc1ncc2c(C3=CC4CCC(C3)N4)cc([C@H]3CC[C@H](O)CC3)n2n1 (stereo partly drawn) [Compound 170] | 1000 to 10000 nM | ≤ 100 nM | – | +++ (“+++” represents a ratio of >100) |
| COC[C@H](C)Nc1ncc2c(-c3cnn(C(C)(C)c4ncc(C)o4)c3)cc(C3CCC(O)CC3)n2n1 (stereo partly drawn) [Compound 628] | 1000 to 10000 nM | ≤ 100 nM | +++ (“+++” represents a ratio of >100) | – |
| COC[C@H](C)Nc1ncc2c(-c3cnn(C(C)(C)c4nnc(C(C)C)o4)c3)cc([C@H]3CC[C@H](O)CC3)n2n1 [Compound 600] | 1000 to 10000 nM | ≤ 100 nM | +++ (“+++” represents a ratio of >100) | – |
| CC(CC#N)Nc1ncc2c(-c3ccc(CN4CCN(C)CC4)cc3)cc(C3CCC(O)CC3)n2n1 (stereo not drawn) [Compound 145] | ≤ 100 nM | ≤ 100 nM | – | ++ (“++” represents a ratio of between 10 and 100) |
| COCC(C)Nc1ncc2c(-c3ccc(C4(C(=O)N5CCS(=O)(=O)CC5)CC4)cc3)cc(C3CCC(O)CC3)n2n1 (stereo not drawn) [Compound 172] | ≤ 100 nM | ≤ 100 nM | – | ++ (“++” represents a ratio of between 10 and 100) |
| COC[C@H](C)Nc1ncc2c(-c3cnn(C4COC4)c3)cc([C@H]3CC[C@H](O)C(F)(F)C3)n2n1 [Compound 614] | 100 to 1000 nM | ≤ 100 nM | +++ (“+++” represents a ratio of >100) | – |
| COC[C@H](C)Nc1ncc2c(-c3ccc(C4(N5CCOCC5)CC4)cc3)cc([C@H]3CC[C@H](O)CC3)n2n1 [Compound 184] | 100 to 1000 nM | ≤ 100 nM | – | ++ (“++” represents a ratio of between 10 and 100) |
| COC[C@H](C)N(C)c1ncc2c(-c3ccnc(C)c3)cc([C@H]3CC[C@H](O)CC3)n2n1 [Compound 175, (trans)-4-(2-(((S)-1-methoxypropan-2-yl)(methyl)amino)-5-(2-methylpyridin-4-yl)pyrrolo[2,1-f][1,2,4]triazin-7-yl)cyclohexanol] | 1000 to 10000 nM | 100 to 1000 nM | – | ++ (“++” represents a ratio of between 10 and 100) |
| COCC1(Nc2ncc3c(-c4ccc(CN5CCN(C)CC5)cc4)cc(C4CCC(O)CC4)n3n2)CC1 (stereo not drawn) [Compound 149] | 100 to 1000 nM | ≤ 100 nM | – | ++ (“++” represents a ratio of between 10 and 100) |
| C[C@@H](COC(F)F)Nc1ncc2c(-c3ccnc(N4CCO[C@@H](C(C)(C)O)C4)c3)cc([C@H]3CC[C@H](O)CC3)n2n1 [Compound 597] | 100 to 1000 nM | ≤ 100 nM | +++ (“+++” represents a ratio of >100) | – |

From patent publication US11040981B2, “Pyrrolotriazine compounds and methods of inhibiting TAM kinases” (Syros Pharmaceuticals, Inc., priority 2017, dated 2021)
